Results reported in patent publication US12576155B2, “Senolytic and antiinflammatory prodrugs and methods of use thereof” (priority 2019, dated 2026).

Experiments:
Assay type in all cases: cell-based
[1] = system: senescent human fibroblasts; assay: Other reported senolytic compounds in cultured senescent human fibroblasts; conditions: hydroperoxide-, replication-, irradiation- and etoposide-induced senescent cells
Description: (§1) For replication-induced senescence, cells were passaged until they lost the ability to proliferate and became senescent. NBFs were used as senescent cells after approximately 8-9 passages or 12 population doublings. HEFs were used after approximately 35 passages or 50 population doublings. HUVECs were senescent after approximately 18 passages or 24 population doublings.
(§2) For ionizing radiation-induced senescence, MEFs and HEFs were exposed to 10 Gy of ionizing irradiation in an RS 2000 X-ray Biological Irradiator (Rad Source Technologies, Inc.) at a dose rate of 1.205 Gy/min. The day after irradiation, MEFs or HEFs were passaged at a 1:3 dilution and cultured for another three days. Then these cells were plated to carry out further experiments.
For etoposide-induced senescence, MEFs were treated with 2 μM etoposide for 20 hours, and HEFs were treated with 10 μM etoposide for 12-18 hours. […]
(§3) To test the viability of senescent and non-senescent cells treated with SSK1, cells were stained with a mixture of Hoechst 33342 and propidium iodide (PI) (CA1120, Solarbio) to distinguish living and dead cells. […] The plate was incubated at 4° C. for 30 min and observed on a fluorescence microscope or automatic cell imaging system. Viable cells were quantified using a MD Image Xpress Micro XL (Molecular Devices).

[2] = system: primary mouse fibroblasts and their replication-induced senescent counterparts; assay: Cell viability testing, senescent vs non-senescent primary mouse fibroblasts
Description: Mouse embryonic fibroblasts (MEFs) were isolated from E13.5 embryos as described previously (Zhao et al., Cell Stem Cell 23, 31-45 e37([…])). Newborn mouse skin fibroblasts (NBFs) were isolated from the skin of day 1-3 newborn mice. Adult mouse lung fibroblasts were isolated from 2-month-old and 23-month-old mice. Briefly, mouse embryonic tissues, skin and lung were obtained from described donor mice. Then, these tissues were minced with forceps and incubated in 2 mg/ml collagenase IV (Gibco) for 2-4 hours at 37° C. After enzyme treatment, cells were collected by centrifugation and resuspended in high-glucose DMEM (Gibco) supplemented with 10% fetal bovine serum (FBS) and 1% penicillin-streptomycin (Gibco). The three types of mouse primary cells were all cultured in a humidified incubator at 37° C. and 5% CO2.
To avoid replication-induced senescent cells, low-passage proliferative NBFs (<3 passages), MEFs (<3 passages), mouse lung fibroblasts (<3 passages), HEFs (<10 passages), and HUVECs (<6 passages) were used as normal controls. To induce cell quiescence, MEFs were cultured in DMEM without FBS for 2 days.
as §1
as §3, with “cells. After treatment with the small molecules, the cell culture medium was removed, and the cells were washed once with PBS.” for “cells.”

[3] = system: human senescent fibroblasts induced by different stimuli; assay: Cell viability, senescent and non-senescent human embryonic fibroblasts (HEFs); conditions: human senescent cells; panel of FDA-approved drugs
Description: Human embryonic skin fibroblasts (HEFs) were obtained as previously described. Briefly, human embryonic skin tissues, obtained from aborted tissue with informed patient consent, were minced with forceps and incubated in 1 mg/ml collagenase IV for 1-2 hours at 37° C. After enzyme treatment, cells were collected by centrifugation and resuspended in HEF medium (Dulbecco's modified Eagle's medium (DMEM, Gibco) containing 10% fetal bovine serum (FBS, Ausbian), 1% GlutaMAX (Gibco), 1% Non-Essential Amino Acids (NEAA, Gibco) and 1% penicillin/streptomycin (Gibco). Cells were plated on 10 cm tissue culture dishes and grown in 10% FBS DMEM.
as §1, §2
(§4) For etoposide-induced senescence, MEFs were treated with 2 μM etoposide for 20 hours, and HEFs were treated with 10 μM etoposide for 12-18 hours. Three days after treatment, cells were sub-cultured at a 1:3 ratio for 72 hours in a fresh medium before further analysis.
as §3

senescent cells = assay: Cell viability, SSK1 combined with p38 inhibitors; conditions: SSK1 0.5 μM plus inhibitor
Description: To test the viability of senescent and non-senescent cells treated with SSK1, cells were stained with a mixture of Hoechst 33342 and propidium iodide (PI) (CA1120, Solarbio) to distinguish living and dead cells. After treatment with the small molecules, the cell culture medium was removed, and the cells were washed once with PBS. Then, the cells were stained according to the manufacturer's protocol, where the final concentrations of Hoechst 33342 and PI were 5 μg/ml and 2 μg/ml in PBS buffer. The plate was incubated at 4° C. for 30 min and observed on a fluorescence microscope or automatic cell imaging system. Viable cells were quantified using a MD Image Xpress Micro XL (Molecular Devices).

[4] = system: β-galactosidase positive senescent human embryonic fibroblasts (HEFs); assay: CCK-8 cell viability, SSK2 in etoposide-induced senescent HEFs; conditions: increasing doses, 72 h
Description: as §4
Cultured cells were washed once with PBS and fixed in β-galactosidase staining fix solution for 15 min at room temperature. Cells were then washed three times with PBS and incubated with β-galactosidase staining solution (Beyotime Biotechnology) for 16-20 hours at 37° C. For 12-well plates, 1 ml of β-galactosidase staining solution was added to each well. The plate was sealed with Parafilm to prevent evaporation of the staining medium. After the overnight incubation, cells were washed with PBS and observed under a bright field microscope. For β-galactosidase staining of frozen sections, the frozen sections were dried at 37° C. for 20-30 min and then fixed in β-galactosidase staining fix solution for 15 min at room temperature. The frozen sections were washed three times with PBS and incubated with β-galactosidase staining solution overnight at 37° C. […]
Cell Counting Kit-8 (CCK-8) analysis was also used to assess cell viability. […] The absorbance was measured at 450 nm wavelength.

[5] = system: primary human chondrocytes isolated from Osteoarthritis patient; assay: Viability / apoptosis of primary human OA chondrocytes (CCK-8, Annexin V flow cytometry)
Description: Fibroblasts were digested into single cell suspensions by incubation with 0.25% trypsin-EDTA (Invitrogen) at 37° C. for 3-5 min or with accutase at 37° C. for 10 min. Cells were then stained with FITC annexin V and propidium iodide (PI) according to the manufacturer's protocol (FITC Annexin V Apoptosis Detection Kit I, BD Pharmingen™). For chondrocytes Annexin V/7-AAD analysis, the trypsinized live chondrocytes and floating cells were collected, centrifuged and washed with PBS. Cells were stained with the Annexin V Apoptosis Detection Kit (Biolegend, 640934) according to the manufacturer's instruction. Before the flow cytometric analysis, the precision count beads (Biolegend, 424902) were added to count the absolute live cell numbers. Flow cytometry was performed within one hour on an Aria III (BD Biosciences) or FACSVerse (BD Biosciences). Data were analyzed using FlowJo software (FlowJo LLC).
Cell Counting Kit-8 (CCK-8) analysis was also used to assess cell viability. Senescent and non-senescent cells or chondrocytes were inoculated into 96-well plates and cultured overnight. Then cells were treated with vehicle (0.05% DMSO) or different concentrations of SSK2. After 48 h or 72 h, CCK-8 solution (C0041, Beyotime) was added to each well as 1:10 ratio and inoculated for another 2 h. The absorbance was measured at 450 nm wavelength.

CC1(C)CCC(c2ccc(Cl)cc2)=C(CN2CCN(c3ccc(C(=O)NS(=O)(=O)c4ccc(N[C@H](CCN5CCOCC5)CSc5ccccc5)c(S(=O)(=O)C(F)(F)F)c4)cc3)CC2)C1 [ABT263]
Selective killing of senescent human fibroblasts compared with proliferative cells [1]: selectively killed hydroperoxide-induced senescent human fibroblasts but not replication-induced cells

Nc1ccn([C@@H]2O[C@H](CO)[C@@H](O)C2(F)F)c(=O)n1 [gemcitabine]
Selective killing of senescent cells (viable cells) ([2]; increasing doses, senescent vs non-senescent cells): killed both cell types
Cytotoxicity for senescent cells ([2]; mouse senescent cells, panel of FDA-approved drugs): killed both mouse and human senescent cells effectively and potently
Cytotoxicity for senescent cells [3]: killed both mouse and human senescent cells effectively and potently

Cc1ccc(-n2nc(C(C)(C)C)cc2NC(=O)Nc2ccc(OCCN3CCOCC3)c3ccccc23)cc1 [Birb796]
Viable cells, SSK1 combined with p38 MAPK inhibitor (senescent cells): impaired SSK1's ability to specifically kill senescent cells

Oc1ccc(-c2nc(-c3ccncc3)c(-c3ccc(F)cc3)[nH]2)cc1 [SB202190]
Viable cells, SSK1 combined with p38 MAPK inhibitor (senescent cells): impaired SSK1's ability to specifically kill senescent cells

O=C(Nc1ccn([C@@H]2O[C@H](CO)C(O)C2(F)F)c(=O)n1)OCc1ccc(O[C@@H]2OC(CO)[C@H](O)C(O)C2O)c([N+](=O)[O-])c1 (stereo partly shown) [SSK2]
Selective killing of senescent HEFs (viable cells) [4]: efficiently and selectively kill β-galactosidase positive senescent human embryonic fibroblasts (HEFs) in a dose-dependent manner
Elimination of OA chondrocytes ([5]; FIG. 16: 10 μM, 72 h, FIG. 17: increasing concentrations): efficiently eliminate primary human chondrocytes isolated from Osteoarthritis patient
Viable human OA chondrocytes with increasing concentrations ([5]; SSK2 treatment for 48 h / 72 h as printed): Dose-dependent elimination of senescent cells

C[S+]([O-])c1ccc(-c2nc(-c3ccncc3)c(-c3ccc(F)cc3)[nH]2)cc1 (stereo not shown) [SB203580]
Viable cells, SSK1 combined with p38 MAPK inhibitor (senescent cells): impaired SSK1's ability to specifically kill senescent cells
